Measured values: US20170074857A1, “MEDICATION ADHERENCE MONITORING DEVICE” (UNIVERSITY OF FLORIDA RESEARCH FOUNDATION, INC., priority 2014, published 2017)

Experiment: Example 4a: noncompartmental pharmacokinetics of exhaled 2-butanone and 2-pentanone by mGC;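 on TThresh: time until breath level first exceeds the mGC detection limit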
Type: in vivo, human
Description: Test Materials. […] 2-butanol was purchased from Penta Manufacturing Company (Fairfield, N.J.). 2-pentanol and L-carvone were purchased from Sigma-Aldrich (St. Louis, Mo.). […] 2-pentanone was also used as a taggant, but we hypothesized that its inherent volatility would allow exhalation without need for metabolism. L-carvone tastes like spearmint and was used as a flavor mask. All capsules were filled on the day of the experiment.
Subject Enrollment and Protocol. This protocol (20100140) was approved by the Western Institutional Review Board (Olympia, Wash.). Healthy subjects (n=5) aged >18 years of age and of either sex were recruited. Informed, written consent was obtained from all enrolled subjects. The study consisted of a single experimental limb with six replicates per subject. Therefore, for five subjects with six replicated experiments, a total of 30 studies were performed. Subjects were free to eat ad lib prior to participation in the study. At commencement of the experiments, subjects provided a baseline breath sample (designated time 0 min) into the mGC for analysis as described subsequently. Then, subjects orally consumed the previously detailed capsule with 177 mL (6 ounces) of water. Following ingestion, we observed the breath concentration-time relationships of 2-butanone and 2-pentanone by collecting single-breath samples at times 5, 10, 15, 20, 30, 45, and 60 min. After 60 min, the experiment was concluded. After at least one day's respite, subjects returned for replicate experiments on five additional occasions.
2-Butanone and 2-Pentanone Measurement in Human Breath by mGC. Breath specimens were analyzed “real-time” to measure the concentrations of 2-butanone and 2-pentanone using the mGC (Xhale, Inc. Gainesville, Fla.) as previously described. In brief, a mouthpiece (FST®, Intoximeters, Inc., St. Louis, Mo.) was attached to the inlet of the mGC. A 15 mL side-stream sample was aspirated during a single exhalation over 5 s through this inlet port to a room temperature concentrator trap containing 4 mg of Tenax TA (Sigma-Aldrich). The trap temperature was then increased to 130° C. and the volatile components transferred to a 5 m by 0.53 mm internal diameter, metal clad, BAC-1 capillary column (Restek Corp, Bellefonte, Pa.) operated at 55° C. The effluent from the column then flowed to the metal oxide detectors. Separation of the markers from other volatile organic compounds present in the sample (i.e., acetone and isoprene) occurred in approximately 2 min. Data were tabulated and graphically presented over time to determine the concentrations of 2-butanone and 2-pentanone in a given breath specimen. Data are reported in parts-per-billion (ppb) based on molar fractions to account for differing ambient atmospheric pressures and temperature.
Pharmacokinetic Analysis. Analyte breath concentrations reported as ppb were converted to ng/mL by multiplying each concentration by the molecular weight of the respective molecule to allow proper functioning of conventional PK software for noncompartmental analysis (WinNonlin 5.2, Pharsight Corporation, St. Louis, Mo.). Estimates were generated for the following PK parameters (abbreviation, unit): first-order elimination rate constant (Lambda Z, min-1), half-life of elimination (Half-life, min), maximal drug concentration (CMAX, μg/mL), time at maximal drug concentration (TMAX, min), area under concentration versus time curve from zero to the last time point (AUC0-LAST, min*μg/mL), area under concentration versus time curve from zero to infinity (AUC0-∞, min*μg/mL), percentage of area under concentration versus time curve from zero to infinity, which is extrapolated from AUC0-t (% AUC Extrap) and the mean residence time (MRT, min). The area under concentration versus time curve (AUC) was calculated using the linear trapezoidal rule. All values are reported separately for each subject as mean±standard deviation following conversion from ng/mL to ppb. […]

For `CCC(C)=O` [Formulation 2-butanone, 2-butanone], which “% AUC Extrap” value (30 observations) is on record?
Its value is 17.9%.

And the AUC0-8 (30 observations)?
Its AUC0-8 is 51190 min · ppb.

And the AUC0-LAST (30 observations)?
The AUC0-LAST was 41820 min · ppb.

And the CMAX (30 observations)?
Its CMAX is 1376 ppb.

And the Half-life (30 observations)?
The Half-life was 216 min.

What about the LAMBDA_Z (30 observations) of the same compound?
The LAMBDA_Z was 0.036 min⁻¹.

What about the MRT0-last (30 observations) of the same compound?
Its MRT0-last is 25.7 min.

And the TMAX (30 observations)?
The TMAX was 17.8 min.

And the “% AUC Extrap” value (REPLICATE 1)?
Its value is 41.3%.

And the AUC0-LAST (REPLICATE 1)?
Its AUC0-LAST is 53278 min · ppb.

And the “AUC0-∞” value (REPLICATE 1)?
Its value is 64618 min · ppb.

What about the CMAX (REPLICATE 1) of the same compound?
The CMAX was 1793 ppb.

And the Half-life (REPLICATE 1)?
The Half-life was 21.1 min.

What about the LAMBDA_Z (REPLICATE 1) of the same compound?
The LAMBDA_Z was 0.036 min⁻¹.

And the MRT0-last (REPLICATE 1)?
Its MRT0-last is 24.4 min.

And the TMAX (REPLICATE 1)?
Its TMAX is 15.0 min.

And the TThresh (REPLICATE 1, same 5 subjects)?
Its TThresh is 5.0 min.

And the “% AUC Extrap” value (REPLICATE 2)?
The value was 47.3%.

What about the AUC0-LAST (REPLICATE 2) of the same compound?
Its AUC0-LAST is 44693 min · ppb.

And the “AUC0-∞” value (REPLICATE 2)?
Its value is 58070 min · ppb.

What about the CMAX (REPLICATE 2) of the same compound?
The CMAX was 1361 ppb.

And the Half-life (REPLICATE 2)?
Its Half-life is 24.1 min.

What about the LAMBDA_Z (REPLICATE 2) of the same compound?
The LAMBDA_Z was 0.033 min⁻¹.

And the MRT0-last (REPLICATE 2)?
The MRT0-last was 28.3 min.

And the TMAX (REPLICATE 2)?
Its TMAX is 21.0 min.

And the TThresh (REPLICATE 2)?
The TThresh was 7.0 min.

And the “% AUC Extrap” value (REPLICATE 3)?
Its value is 31.3%.

What about the AUC0-LAST (REPLICATE 3) of the same compound?
Its AUC0-LAST is 36508 min · ppb.

What about the “AUC0-∞” value (REPLICATE 3) of the same compound?
The value was 42226 min · ppb.

And the CMAX (REPLICATE 3)?
The CMAX was 1175 ppb.

What about the Half-life (REPLICATE 3) of the same compound?
Its Half-life is 16.4 min.

What about the LAMBDA_Z (REPLICATE 3) of the same compound?
Its LAMBDA_Z is 0.048 min⁻¹.

What about the MRT0-last (REPLICATE 3) of the same compound?
The MRT0-last was 24.8 min.

And the TMAX (REPLICATE 3)?
Its TMAX is 17.0 min.

What about the TThresh (REPLICATE 3) of the same compound?
Its TThresh is 6.0 min.

What about the “% AUC Extrap” value (REPLICATE 4) of the same compound?
Its value is 37.3%.

What about the AUC0-LAST (REPLICATE 4) of the same compound?
Its AUC0-LAST is 44467 min · ppb.

What about the “AUC0-∞” value (REPLICATE 4) of the same compound?
Its value is 52141 min · ppb.

What about the CMAX (REPLICATE 4) of the same compound?
The CMAX was 1449 ppb.

And the Half-life (REPLICATE 4)?
Its Half-life is 21.2 min.

What about the LAMBDA_Z (REPLICATE 4) of the same compound?
Its LAMBDA_Z is 0.038 min⁻¹.

What about the MRT0-last (REPLICATE 4) of the same compound?
Its MRT0-last is 23.9 min.

What about the TMAX (REPLICATE 4) of the same compound?
The TMAX was 19.0 min.

What about the TThresh (REPLICATE 4) of the same compound?
Its TThresh is 6.0 min.

And the “% AUC Extrap” value (REPLICATE 5)?
Its value is 54.6%.

And the AUC0-LAST (REPLICATE 5)?
Its AUC0-LAST is 37792 min · ppb.

And the “AUC0-∞” value (REPLICATE 5)?
The value was 491783 min · ppb.

And the CMAX (REPLICATE 5)?
The CMAX was 1227 ppb.

What about the Half-life (REPLICATE 5) of the same compound?
Its Half-life is 27.7 min.

And the LAMBDA_Z (REPLICATE 5)?
Its LAMBDA_Z is 0.026 min⁻¹.

What about the MRT0-last (REPLICATE 5) of the same compound?
The MRT0-last was 26.6 min.

What about the TMAX (REPLICATE 5) of the same compound?
Its TMAX is 15.0 min.

What about the TThresh (REPLICATE 5) of the same compound?
The TThresh was 7.0 min.

What about the “% AUC Extrap” value (REPLICATE 6) of the same compound?
Its value is 39.2%.

And the AUC0-LAST (REPLICATE 6)?
The AUC0-LAST was 34184 min · ppb.

What about the “AUC0-∞” value (REPLICATE 6) of the same compound?
The value was 40905 min · ppb.

And the CMAX (REPLICATE 6)?
The CMAX was 1251 ppb.

What about the Half-life (REPLICATE 6) of the same compound?
Its Half-life is 18.9 min.

And the LAMBDA_Z (REPLICATE 6)?
The LAMBDA_Z was 0.037 min⁻¹.

And the MRT0-last (REPLICATE 6)?
Its MRT0-last is 26.5 min.

What about the TMAX (REPLICATE 6) of the same compound?
The TMAX was 20.0 min.

And the TThresh (REPLICATE 6)?
Its TThresh is 6.0 min.

And the “% AUC Extrap” value (SUBJECT 1)?
The value was 22.6%.

And the AUC0-LAST (SUBJECT 1)?
The AUC0-LAST was 45298 min · ppb.

And the “AUC0-∞” value (SUBJECT 1)?
The value was 59106 min · ppb.

What about the CMAX (SUBJECT 1) of the same compound?
The CMAX was 1297 ppb.

And the Half-life (SUBJECT 1)?
Its Half-life is 22.6 min.

What about the LAMBDA_Z (SUBJECT 1) of the same compound?
The LAMBDA_Z was 0.033 min⁻¹.

What about the MRT0-last (SUBJECT 1) of the same compound?
Its MRT0-last is 29.3 min.

And the TMAX (SUBJECT 1)?
The TMAX was 21.7 min.

And the TThresh (SUBJECT 1, six replicates)?
The TThresh was 6.7 min.

What about the “% AUC Extrap” value (SUBJECT 2) of the same compound?
The value was 19.2%.

What about the AUC0-LAST (SUBJECT 2) of the same compound?
The AUC0-LAST was 66466 min · ppb.

What about the “AUC0-∞” value (SUBJECT 2) of the same compound?
Its value is 82628 min · ppb.

What about the CMAX (SUBJECT 2) of the same compound?
Its CMAX is 1926 ppb.

What about the Half-life (SUBJECT 2) of the same compound?
Its Half-life is 20.6 min.

And the LAMBDA_Z (SUBJECT 2)?
The LAMBDA_Z was 0.034 min⁻¹.

And the MRT0-last (SUBJECT 2)?
Its MRT0-last is 27.7 min.

And the TMAX (SUBJECT 2)?
Its TMAX is 20.8 min.

What about the TThresh (SUBJECT 2) of the same compound?
Its TThresh is 5.0 min.

And the “% AUC Extrap” value (SUBJECT 3)?
The value was 23.2%.

And the AUC0-LAST (SUBJECT 3)?
The AUC0-LAST was 19608 min · ppb.

What about the “AUC0-∞” value (SUBJECT 3) of the same compound?
The value was 25623 min · ppb.

And the CMAX (SUBJECT 3)?
Its CMAX is 1021 ppb.

And the Half-life (SUBJECT 3)?
The Half-life was 30.7 min.

And the LAMBDA_Z (SUBJECT 3)?
The LAMBDA_Z was 0.024 min⁻¹.

What about the MRT0-last (SUBJECT 3) of the same compound?
The MRT0-last was 22.7 min.

What about the TMAX (SUBJECT 3) of the same compound?
Its TMAX is 11.7 min.

What about the TThresh (SUBJECT 3) of the same compound?
The TThresh was 5.8 min.

What about the “% AUC Extrap” value (SUBJECT 4) of the same compound?
The value was 12.6%.

And the AUC0-LAST (SUBJECT 4)?
Its AUC0-LAST is 68147 min · ppb.

And the “AUC0-∞” value (SUBJECT 4)?
The value was 77593 min · ppb.

And the CMAX (SUBJECT 4)?
Its CMAX is 2238 ppb.

What about the Half-life (SUBJECT 4) of the same compound?
Its Half-life is 16.4 min.

What about the LAMBDA_Z (SUBJECT 4) of the same compound?
The LAMBDA_Z was 0.043 min⁻¹.

What about the MRT0-last (SUBJECT 4) of the same compound?
Its MRT0-last is 26.2 min.

What about the TMAX (SUBJECT 4) of the same compound?
Its TMAX is 18.3 min.

And the TThresh (SUBJECT 4)?
The TThresh was 5.8 min.

And the “% AUC Extrap” value (SUBJECT 5)?
Its value is 12.0%.

And the AUC0-LAST (SUBJECT 5)?
The AUC0-LAST was 9581 min · ppb.

What about the “AUC0-∞” value (SUBJECT 5) of the same compound?
Its value is 10999 min · ppb.

What about the CMAX (SUBJECT 5) of the same compound?
Its CMAX is 398 ppb.

And the Half-life (SUBJECT 5)?
Its Half-life is 17.5 min.

And the LAMBDA_Z (SUBJECT 5)?
Its LAMBDA_Z is 0.046 min⁻¹.

And the MRT0-last (SUBJECT 5)?
Its MRT0-last is 22.9 min.

What about the TMAX (SUBJECT 5) of the same compound?
The TMAX was 16.7 min.

And the TThresh (SUBJECT 5)?
The TThresh was 7.5 min.

What about the “observed CMAX range” value (across subjects) of the same compound?
Its value is 398-2,238 ppb.

What about the “half life in breath” value (after oral 2-butanol (40 and 60 mg) to humans) of the same compound?
Its value is 11 to 22 min.

And the TThresh (mean of 30 observations (5 subjects, 6 replicates), oral 2-butanol 60 mg + 2-pentanone 60 mg)?
Its TThresh is 6.2 min.
